9 compounds from PubChem BioAssay (NCI) can be followed below.

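All cell lines were grown in 96-well plates and treated with compound for 48 hours. At the GI50, growth is halved. The concentration for full growth arrest is given as TGI.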

Common to all, as to assay: DTP human tumour cell line panel, 48 h
Experiment [1] has as its system HS 578T breast.
For experiment [2], the system named is MALME-3M melanoma.
The test system of experiment [3] is OVCAR-8 ovarian.
Experiment [4] has as its system PC-3 prostate.
For experiment [5], the system named is SF-295 CNS.
Experiment [6] deals with SK-MEL-28 melanoma.
Experiment [7] deals with T-47D breast.
Experiment [8] deals with UACC-257 melanoma.

Usually GI50 stands for the concentration at which growth is held to half of that of the control. By TGI is commonly meant the concentration at which net growth stops. The low end stands for more potent growth arrest, the high end for less potent growth arrest.

As to `COc1cc(NS(C)(=O)=O)ccc1Nc1c2ccc(Cl)cc2nc2c(OC)cccc12`, the GI50 in experiment [1] is 4.47 µM; in experiment [2], 0.211 µM; in experiment [3], 0.186 µM; in experiment [4], 0.782 µM; in experiment [5], 0.0356 µM; in experiment [6], 1.96 µM. Besides, the GI50 in experiment [7] is 0.0826 µM; in experiment [8], 0.698 µM. Moreover, the TGI in experiment [1] came to 73.7 µM; in experiment [2], 4.69 µM; in experiment [3], 5.07 µM; in experiment [4] it was 15.2 µM; in experiment [5] it was 1.11 µM; in experiment [6], 18 µM. For the same compound, the concentration for total growth inhibition (TGI) in experiment [7] was 3.37 µM; in experiment [8] it was 4.07 µM.
As to `COc1cc(C(=O)c2ccc3c(c2)OCO3)cc(OC)c1OC`, the GI50 is 2.54 µM in experiment [1]; 5.55 µM in experiment [3]; 4.12 µM in experiment [4]; 1.55 µM in experiment [5]; 3.69 µM in experiment [6]; 5.3 µM in experiment [7]. The GI50 in experiment [8] was above 100 µM. Further, the concentration for total growth inhibition (TGI) is above 26.9 µM in experiment [1]; above 100 µM in experiment [3]; above 100 µM in experiment [4]; above 100 µM in experiment [6]; above 100 µM in experiment [7]; above 100 µM in experiment [8].
As to `Cc1cc2c(cc1Cl)SC1=CC(=O)N(c3ccccc3)C1=NS2(=O)=O`, the GI50 in experiment [2] is 44.6 µM; in experiment [3], 57.1 µM; in experiment [4], 37.4 µM; in experiment [5] it was above 100 µM; in experiment [6], 16.9 µM; in experiment [7], 13 µM. For the same compound, the GI50 in experiment [8] is 51.5 µM. The TGI in experiment [2] was above 100 µM; in experiment [3], above 100 µM; in experiment [4], above 100 µM; in experiment [5] it was above 100 µM; in experiment [6], 40.9 µM; in experiment [7], 65.1 µM. Moreover, the concentration for total growth inhibition (TGI) in experiment [8] was above 100 µM.
Regarding `Cn1nccc1Nc1nccc(-c2cc3c(s2)C(C)(C)N(CCN2CCOCC2)C3=O)n1`, the GI50 in experiment [1] is 15.9 µM; in experiment [2], 0.183 µM; in experiment [3], 24.3 µM; in experiment [4], 28.8 µM; in experiment [5] it was above 89.9 µM; in experiment [6] it was 0.348 µM. For the same compound, the results for the GI50 in experiment [7] and in experiment [8] were 17.4 µM and 0.301 µM, respectively. Besides, the TGI in experiment [1], in experiment [2], in experiment [3], in experiment [4], in experiment [5] and in experiment [6] was above 100 µM in each case. The TGI in experiment [7] was above 77.7 µM; in experiment [8] it was above 100 µM.
As for `C/C=C(\C)C(=O)N[C@H]1CC[C@]2(C)C3CC[C@@]4(C)C(CC[C@@H]4C(C)N(C)C)C3CCC2[C@H]1OC(C)=O` (stereo partly specified), the GI50 is 1.75 µM in experiment [1]; 1.91 µM in experiment [2]; 3.38 µM in experiment [3]; 2.05 µM in experiment [4]; 1.88 µM in experiment [5]; 1.59 µM in experiment [6]. In addition, the values for the GI50 in experiment [7] and in experiment [8] were 1.74 µM and 2.12 µM, respectively. In addition, the concentration for total growth inhibition (TGI) in experiment [1] was 4.7 µM; in experiment [2] it was 3.73 µM; in experiment [3] it was above 25.8 µM; in experiment [4], 6.59 µM; in experiment [5] it was 4.05 µM; in experiment [6] it was 3.24 µM. Also, the TGI was 5.42 µM in experiment [7] and 4.16 µM in experiment [8].
For `COc1ccc(-c2[nH]c3ccccc3c2C=C(C#N)C#N)cc1`, the GI50 in experiment [1] was 0.201 µM; in experiment [2], 0.874 µM; in experiment [3] it was 1.1 µM; in experiment [4], 0.547 µM; in experiment [5] it was 0.331 µM; in experiment [6] it was 1.14 µM. In addition, the GI50 in experiment [7] was 0.481 µM; in experiment [8], above 20.6 µM. The concentration for total growth inhibition (TGI) in experiment [2] was above 100 µM; in experiment [3], above 100 µM; in experiment [4], above 100 µM; in experiment [5], 6.3 µM; in experiment [6] it was above 39.3 µM; in experiment [7], above 100 µM. This compound displayed a TGI in experiment [8] above 100 µM.
With `C=C1C(=O)O[C@H]2[C@H]1CC/C(COC(=O)CCCCC(=O)OC/C1=C/CC[C@@]3(C)O[C@H]3[C@H]3OC(=O)C(=C)[C@@H]3CC1)=C\CC[C@@]1(C)O[C@@H]21`, the GI50 in experiment [1] is 1.97 µM; in experiment [2], 2.1 µM; in experiment [3], 2.76 µM; in experiment [4], 2.43 µM; in experiment [5] it was 6.32 µM; in experiment [6], 2.85 µM. The GI50 in experiment [8] was 1.82 µM. In addition, the TGI in experiment [1] was 8.46 µM; in experiment [2] it was 5.66 µM; in experiment [3], 11 µM; in experiment [4], 7.46 µM; in experiment [5], above 100 µM; in experiment [6], above 100 µM. The total growth inhibition concentration (TGI) in experiment [8] is 4.4 µM.
For `CC(=O)N1N=C2/C(=C/c3ccccc3)CC(C)CC2C1c1ccccc1` (stereo unspecified), the GI50 in experiment [1] was 15.4 µM; in experiment [2], 18 µM; in experiment [3], 16.1 µM; in experiment [4], 10.7 µM; in experiment [5] it was 15.9 µM; in experiment [6], 18.5 µM. In addition, the GI50 was 10.7 µM in experiment [7] and 16.5 µM in experiment [8]. For the same compound, the TGI was determined as 34.6 µM in experiment [1]; 37.4 µM in experiment [2]; 50.6 µM in experiment [3]; 40.2 µM in experiment [4]; 35.1 µM in experiment [5]; 36.5 µM in experiment [6]. Besides, the TGI in experiment [7] was 34.7 µM; in experiment [8] it was 32.6 µM.
On to `C1=Cc2ccccc2Nc2ccccc21`, for which the GI50 in experiment [1], in experiment [2], in experiment [3], in experiment [4], in experiment [5] and in experiment [6] was above 100 µM each time. Also, the GI50 in experiment [7] and in experiment [8] was above 100 µM throughout. Further, the TGI in experiment [1], in experiment [2], in experiment [3], in experiment [4], in experiment [5] and in experiment [6] was above 100 µM each time. Moreover, the TGI in experiment [7] and in experiment [8] was above 100 µM in each case.
